The values below come from patent publication EP4534147A1, “STING ANTAGONIST COMPOUNDS” (Sulis Therapeutics ApS, priority 2023, dated 2025).

SMILES strings stand for the structures. Some results are limits rather than exact numbers.

In assay [1] the target is T1, STING (Homo sapiens, UniProt Q86WV6).
T1 construct: endogenous in cells; host or cells: human skin fibroblasts
The assay can be described thus: Human FB STING antagonist assay (IFN-a/b release). The format is cell-based. The following applies: Human skin fibroblasts, 2h pre-treatment, 300 nM GSK STING agonist (CAS number: 2138299-34-8) for 20 h, release of IFN-a/b by HEK-Blue IFN-α/β bioassay. The method, then:
STING antagonist activity can be determined by a human fibroblast antagonist assay. For this, human skin fibroblasts are pre-treated for 2h with a serial dilution of the compound, and are then stimulated for 20 hours with 300 nM STING agonist (e.g. from GSK, CAS number: 2138299-34-8). Supernatants are then harvested and assessed for IFN-a/b release, which indicates STING activation. IFN-a/b concentration in the supernatant is determined, e.g. using an IFN-α/β bioassay. IC50 values are calculated using a non-linear regression fitting, variable slope (4 parameters).
Human skin fibroblasts were pre-treated for 2h with a serial dilution of test compound followed by stimulation with mock or 300 nM GSK STING agonist (CAS number: 2138299-34-8). Supernatants were harvested after 20 h of STING agonist stimulation. Release of IFN-a/b was determined using HEK-Blue IFN-α/β bioassay (Invivogen). Cellular viability was assessed using Alamar Blue HS assay. IC50 values were estimated using a non-linear regression fitting, variable slope (4 parameters) in GraphPad Prism 9.3.1.

Assay [2] has as its target T2, C-terminal domain (CTD) of human STING (Homo sapiens, UniProt Q86WV6). As to the kind of experiment: STING binding FP assay I (fluorescence polarization competition binding). Also on record: recombinant human STING protein (155-379). The settings on record: recombinant human STING protein (155-379), 35 nM STING, 4 nM fluorescein-labelled STING ligand (Probe 1), 20 min at room temperature. The method, then: (§1) The interaction between molecules and the C-terminal domain (CTD) of human STING was evaluated using a competition binding assay. In this assay, recombinant human STING protein (155-379) and a STING binding fluorescent probe were employed. Upon binding of the probe to STING, the rotation of the fluorescent probe is slowed due to the larger molecular size of the protein-bound complex. As a result, emitted light retains its plane of polarization, leading to an increase in fluorescence polarization. Molecules competing for the probe binding site displace the probe, which leads to rapid randomization of the polarization plane of the emitted light and a subsequent decrease in measured fluorescence polarization signal. Change in polarization was measured, allowing a comparative evaluation of the binding affinities of different compounds to the target protein.
(§2) The assay was performed in 96-well plates (ThermoFisher, cat.# 237108) containing 100 µl : 10 µL test compound in 10% DMSO and buffer A (150 mM NaCl, 50 mM HEPES pH 7.5, 1 mM DTT) + 90 µL prepared master mix solution of: 4 nM fluorescein-labelled STING ligand (Probe 1; synthesis described above) in buffer A + 0.055% Tween-20 (v/v) and 35 nM STING in buffer A. Post mixing, plates were agitated at 600 rpm and incubated for 20 min at room temperature. Subsequent measurements of the fluorescence polarization signal were made on a BioTek Synergy-H1 plate reader, using a polarization filter; excitation: 485/20 nm, emission: 528/20 nm) with a gain-setting of 75. IC50 values were determined using a standard non-linear regression four-parameter curve fit in Graphpad Prism.
(In general: Polarisation of emitted light reports the rotation of a fluorescent probe.)
Target sequence in this assay (Q86WV6 155-379): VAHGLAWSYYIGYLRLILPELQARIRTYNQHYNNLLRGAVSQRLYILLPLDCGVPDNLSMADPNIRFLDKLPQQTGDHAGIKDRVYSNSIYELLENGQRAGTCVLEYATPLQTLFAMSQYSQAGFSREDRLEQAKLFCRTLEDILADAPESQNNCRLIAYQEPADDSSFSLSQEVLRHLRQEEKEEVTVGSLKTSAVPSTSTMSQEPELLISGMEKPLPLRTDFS

Assay [3] has as its target T2, C-terminal domain (CTD) of human STING. The assay can be described thus: STING binding TR-FRET assay (CisBio Human STING WT Binding Kit). Also on record: purchased CisBio 64BDSTGPEG
The following applies: recombinant human STING with His-tag, D2-labeled active site probe, 60 min at room temperature. The method, then:
STING binding can be determined by a time-resolved FRET assay. For instance, a STING protein having a His-tag can be used. A D2-labeled active site probe can be used to accept 620 nm emission from Anti-HIS-Tb-STING. Increased fluorescence is measured at 665 nm. Molecules that compete for the probe binding site will result in a lower 665 nm signal. The assay can be performed in low-volume white 96-well plates containing 5 µL compounds in an appropriate diluent buffer. Following 60 minutes incubation at room temperature in the dark, fluorescence emission at 665 nm is measured following 330 nm xenon flash excitation. pIC50 values can be determined using a standard four parameter curve fit.
The affinity of molecules to the C-terminal domain (CTD) of human STING was determined using a commercial Human STING WT Binding Kit (CisBio, cat.# 64BDSTGPEG). In this time-resolved FRET assay, a recombinant human STING protein construct with a His-tag was employed. When bound to STING, a D2-labeled active site probe accepts the 620 nm emission from Anti-HIS-Tb-STING and an increase in fluorescence is measured at 665 nm. Molecules that compete for the probe binding site will result in a low 665 nm signal. The assay was run in CisBio low-volume white 96-well plates (catalog# 66PL96005) containing 5 µL compounds in Diluent Buffer (supplied with the CisBio kit). A solution of 1xSTING, 1x Anti-HIS-Tb and 1X D2-probe in TB detection buffer (kit supplied) was added to the plate. Plates were centrifuged for 2 min at 500 rpm, incubated for 60 min at room temperature in the dark, and then fluorescence emission at 665 nm following 330 nm xenon flash excitation on an BioTek synergy H1 multimode reader (Agilent) was measured. The plC50 values were determined using a standard four parameter curve fit in GraphPad Prism.
On the technique in general: In TR-FRET formats the signal depends on donor and acceptor labels being close together.
Target sequence in this assay (Q86WV6 135-379 limits assumed): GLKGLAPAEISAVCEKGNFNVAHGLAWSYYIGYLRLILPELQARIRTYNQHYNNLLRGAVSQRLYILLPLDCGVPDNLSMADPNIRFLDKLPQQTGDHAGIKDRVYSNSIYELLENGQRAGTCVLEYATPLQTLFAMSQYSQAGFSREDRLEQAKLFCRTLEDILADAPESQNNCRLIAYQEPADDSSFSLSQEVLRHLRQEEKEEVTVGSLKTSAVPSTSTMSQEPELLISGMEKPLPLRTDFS

For assay [4] the target is unchanged. The assay can be described thus: STING binding FP assay II (as FP assay I, lower STING concentration). The following applies: 7 nM STING in buffer A, 4 nM fluorescein-labelled STING ligand (Probe 1). Also on record: recombinant human STING protein (155-379). The method, then: as §1, §2
Target sequence in this assay (Q86WV6 155-379): as the sequence (Q86WV6 155-379) above
The procedure for STING binding FP assay II is the same as described for STING binding FP assay I, except for a lower STING concentration. In STING binding FP assay II, a concentration of 7 nM STING in buffer A was used.

T1 sequence (Q86WV6 whole entry): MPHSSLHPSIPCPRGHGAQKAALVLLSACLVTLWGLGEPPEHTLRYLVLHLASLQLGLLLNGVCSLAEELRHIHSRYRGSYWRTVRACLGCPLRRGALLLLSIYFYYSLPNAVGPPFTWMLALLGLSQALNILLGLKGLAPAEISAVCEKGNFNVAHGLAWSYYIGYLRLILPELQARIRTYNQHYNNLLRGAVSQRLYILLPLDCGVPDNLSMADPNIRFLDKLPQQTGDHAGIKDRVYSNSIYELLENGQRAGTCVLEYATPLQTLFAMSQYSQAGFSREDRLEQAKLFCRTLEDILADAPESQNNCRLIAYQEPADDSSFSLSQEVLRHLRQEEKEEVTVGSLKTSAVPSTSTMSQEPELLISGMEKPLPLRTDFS

A word on the IC50: it is the midpoint of a concentration-inhibition curve. With `CCOC(=O)COC(CCn1c(=NC(=O)c2cc(C)nn2CC)n(C)c2cc(C(N)=O)ccc21)CCn1c(=NC(=O)c2cc(C)nn2CC)n(C)c2cc(C(N)=O)ccc21` (stereo not drawn) [Example 2, Ethyl (3-{5-carbamoyl-2-[(1-ethyl-3-methyl-5-pyrazolyl)carbonylimino]-3-methyl-2,3-dihydro-1H-1,3-benzimidazol-1-yl}-1-(2-{5-carbamoyl-2-[(1-ethyl-3-methyl-5-pyrazolyl)carbonylimino]-3-methyl-2,3-dihydro-1H-1,3-benzimidazol-1-yl}ethyl)propoxy)acetate], the IC50 in assay [1] was 2500 nM; in assay [2], under 30 nM.

With `CCn1nc(C)cc1C(=O)N=c1n(C)c2cc(C(N)=O)ccc2n1CCC(CCn1c(=NC(=O)c2cc(C)nn2CC)n(C)c2cc(C(N)=O)ccc21)OCC(=O)Nc1ccncn1` (stereo not drawn) [Example 8, 1-{3-[(N-4-Pyrimidinylcarbamoyl)methoxy]-5-{5-carbamoyl-2-[(1-ethyl-3-methyl-5-pyrazolyl)carbonylimino]-3-methyl-2,3-dihydro-1H-1,3-benzimidazol-1-yl}pentyl}-2-[(1-ethyl-3-methyl-5-pyrazolyl)carbonylimino]-3-methyl-2,3-dihydro-1H-1,3-benzimidazole-5-carboxamide], the IC50 in assay [1] is 4700 nM; in assay [2], under 30 nM.

Turning to `CCn1nc(C)cc1C(=O)N=c1n(C)c2cc(C(N)=O)ccc2n1CCC(CCn1c(=NC(=O)c2cc(C)nn2CC)n(C)c2cc(C(N)=O)ccc21)OCC(=O)NC1CCN(C)CC1` (stereo not drawn) [Example 10, 1-{3-[(N-1-Methyl-4-piperidylcarbamoyl)methoxy]-5-{5-carbamoyl-2-[(1-ethyl-3-methyl-5-pyrazolyl)carbonylimino]-3-methyl-2,3-dihydro-1H-1,3-benzimidazol-1-yl}pentyl}-2-[(1-ethyl-3-methyl-5-pyrazolyl)carbonylimino]-3-methyl-2,3-dihydro-1H-1,3-benzimidazole-5-carboxamide], the IC50 in assay [3] worked out at 0.869 nM; in assay [4], 3.5 nM.

Consider `CCn1nc(C)cc1C(=O)N=c1n(C)c2cc(C(N)=O)ccc2n1CCC(CCn1c(=NC(=O)c2cc(C)nn2CC)n(C)c2cc(C(N)=O)ccc21)OCC(=O)N1CCC[C@H]1c1cccc(OC)c1` (stereo partly drawn) [Example 11, 1-(3-{2-[(S)-2-(3-Methoxyphenyl)-1-pyrrolidinyl]-2-oxoethoxy}-5-{5-carbamoyl-2-[(1-ethyl-3-methyl-5-pyrazolyl)carbonylimino]-3-methyl-2,3-dihydro-1H-1 ,3-benzimidazol-1-yl}pentyl)-2-[(1-ethyl-3-methyl-5-pyrazolyl)carbonylimino]-3-methyl-2,3-dihydro-1H-1,3-benzimidazole-5-carboxamide], for which the IC50 in assay [1] was found to be 3400 nM; in assay [3], 0.862 nM; in assay [4] it was 2 nM.

Take `CCn1nc(C)cc1C(=O)N=c1n(C)c2cc(C(N)=O)ccc2n1CCC(CCn1c(=NC(=O)c2cc(C)nn2CC)n(C)c2cc(C(N)=O)ccc21)OCC(=O)N(Cc1ccc(OC)cc1)C1CC1` (stereo not drawn) [Example 14, 1-[3-({N-Cyclopropyl[(p-methoxyphenyl)methyl]carbamoyl}methoxy)-5-{5-carbamoyl-2-[(1-ethyl-3-methyl-5-pyrazolyl)carbonylimino]-3-methyl-2,3-dihydro-1H-1,3-benzimidazol-1-yl}pentyl]-2-[(1-ethyl-3-methyl-5-pyrazolyl)carbonylimino]-3-methyl-2,3-dihydro-1H-1,3-benzimidazole-5-carboxamide]: the concentration for half-maximal inhibition (IC50) in assay [3] stood at 0.659 nM.

`CCn1nc(C)cc1C(=O)N=c1n(C)c2cc(C(N)=O)ccc2n1CCC(CCn1c(=NC(=O)c2cc(C)nn2CC)n(C)c2cc(C(N)=O)ccc21)OCC(=O)N1[C@H](C)COC[C@@H]1C` (stereo partly drawn) [Example 17, 1-(3-{2-[(3R,5S)-3,5-Dimethyl-4-morpholinyl]-2-oxoethoxy}-5-{5-carbamoyl-2-[(1-ethyl-3-methyl-5-pyrazolyl)carbonylimino]-3-methyl-2,3-dihydro-1H-1,3-benzimidazol-1-yl}pentyl)-2-[(1-ethyl-3-methyl-5-pyrazolyl)carbonylimino]-3-methyl-2,3-dihydro-1H-1,3-benzimidazole-5-carboxamide]: the IC50 in assay [3] was 0.54 nM.

As to `CCn1nc(C)cc1C(=O)N=c1n(C)c2cc(C(N)=O)ccc2n1CCC(CCn1c(=NC(=O)c2cc(C)nn2CC)n(C)c2cc(C(N)=O)ccc21)OCC(=O)N(Cc1ccc(OC)cc1)Cc1ccccn1` (stereo not drawn) [Example 19, 1-(5-{5-Carbamoyl-2-[(1-ethyl-3-methyl-5-pyrazolyl)carbonylimino]-3-methyl-2,3-dihydro-1H-1,3-benzimidazol-1-yl}-3-({[(p-methoxyphenyl)methyl][(2-pyridyl)methyl]carbamoyl}methoxy)pentyl)-2-[(1-ethyl-3-methyl-5-pyrazolyl)carbonylimino]-3-methyl-2,3-dihydro-1H-1,3-benzimidazole-5-carboxamide], the IC50 in assay [3] was found to be 1.11 nM.

Take `CCn1nc(C)cc1C(=O)N=c1n(C)c2cc(C(N)=O)ccc2n1CCC(CCn1c(=NC(=O)c2cc(C)nn2CC)n(C)c2cc(C(N)=O)ccc21)OCC(=O)N1CCC[C@@H]1c1ccc(OC)cc1` (stereo partly drawn) [Example 20, 1-(3-{2-[(R)-2-(p-Methoxyphenyl)-1-pyrrolidinyl]-2-oxoethoxy}-5-{5-carbamoyl-2-[(1-ethyl-3-methyl-5-pyrazolyl)carbonylimino]-3-methyl-2,3-dihydro-1H-1,3-benzimidazol-1-yl}pentyl)-2-[(1-ethyl-3-methyl-5-pyrazolyl)carbonylimino]-3-methyl-2,3-dihydro-1H-1,3-benzimidazole-5-carboxamide]: in assay [3], the IC50 came out at 0.95 nM.

Consider `CCn1nc(C)cc1C(=O)N=c1n(C)c2cc(C(N)=O)ccc2n1CCC(CCn1c(=NC(=O)c2cc(C)nn2CC)n(C)c2cc(C(N)=O)ccc21)OCC(=O)N1CCOC[C@@H]1c1ccccc1` (stereo partly drawn) [Example 30, 1-(3-{2-[(S)-3-Phenyl-4-morpholinyl]-2-oxoethoxy}-5-{5-carbamoyl-2-[(1-ethyl-3-methyl-5-pyrazolyl)carbonylimino]-3-methyl-2,3-dihydro-1H-1,3-benzimidazol-1-yl}pentyl)-2-[(1-ethyl-3-methyl-5-pyrazolyl)carbonylimino]-3-methyl-2,3-dihydro-1H-1,3-benzimidazole-5-carboxamide], for which the IC50 turned out to be 3600 nM in assay [1] and 3.7 nM in assay [4].
